Where two headings read alike, the source gives them in different places.
Legend:
Candida albicans = test system: Candida albicans; parameters: species or system Maus; details: in vivo; for Überlebenszeit (bez. auf Fluconazol = 100 % ): 50 mg/kg
Excerpt: Als Beispiele für die systemische in vivo-Wirksamkeit der Verbindungen dient die systemische Candida albicans Infektion bei der Maus.
Ziel dieser Methode ist es, den Effekt von Präparaten auf eine systemische Candida albicans Infektion zu ermitteln. Die Infektion führt innerhalb von 2-4 Tagen zum Tod der Tiere.
Beschreibung der Methode: Albino Mäuse (NMRI, Männchen, 15-20 g Körpergewicht) werden intravenös mit Candida albicans Hefezellen infiziert (Stamm 200/175), die frisch auf Malzagar vorkultiviert wurden und in physiologischer Kochsalzlösung suspendiert wurden. Die Infektionsdosis, die in dem angegebenen Zeitrahmen zur Lethalität führt, wurde photometrisch eingestellt und enthielt eine Million Hefezellen pro Maus.
Die zu prüfenden Verbindungen werden entweder alleine oder in Kombination mit einem Standardantimykotikum verabreicht. Im durchgeführten Test wurde ein Kombinationspräparat verwendet, wobei als Standardantimykotikum Fluconazol (Fa. Pfizer) diente. Applikationswege sind je nach Substanzgruppe unterschiedlich, wobei der oralen Applikation der Vorzug gegeben wird. Die Mäuse werden 4 Wochen beobachtet, die Mortalität wird täglich registriert, und die Überlebenszeiten der einzelnen Gruppen werden gemittelt und untereinander verglichen. Gruppengröße beträgt durchschnittlich 10 Tiere.
Der Vergleich der Mittelwerte geschieht mit dem Students T Test.
Dosierungen: Fluconazol jeweils 8 x p.o. 50 mg/kg/Tag β-Hydroxy-ethylamin jeweils 14 x p.o. 50 mg/kg/Tag

[1] = test system: liposomalen Phospholipase A1 von Säugern; details: in-vitro-Test; Biochem. Pharmacol. 34, 521-24, 1985; cited from earlier work
[2] = test system: Trichophyton mentagrophytes; assay: Percent killing of Trichophyton mentagrophytes in vitro; assay type: cell-based; details: nach 14 h in aqua dest., read-out: %-Abtötung von Trichophyton mentagrophytes; for killing at 2.5 µg/mL: 2,5 µg/ml
Method: (Werte in %-Abtötung von Trichophyton mentagrophytes nach 14 h in aqua dest.)

Plasmopara viticola = assay: Fungicidal activity on vine seedlings inoculated with Plasmopara viticola; assay type: in vivo, Weinsämlinge; details: untreated infected control = 100
Method: Weinsämlinge wurden ca. 6 Wochen nach der Aussaat mit wäßrigen Suspensionen der zu untersuchenden Verbindungen gleichmäßig benetzt. Nach dem Antrocknen des Spritzbelages wurden die Pflanzen mit einer Sporensuspension von Plasmopara viticola inokuliert und für kurze Zeit in eine Klimakammer (23 °C und 80-90 % rel. Luftfeuchte) gestellt. Nach einer Inkubationszeit von 7 Tagen wurden die Pflanzen zur Sporulation des Pilzes erneut für einige Stunden in die Klimakammer gestellt. Anschließend erfolgte die Auswertung des Befalls. Der Befallsgrad wird ausgedrückt in % befallener Blattfläche im Vergleich zu den unbehandelten, infizierten Kontrollpflanzen und ist in Tabelle 4 wiedergegeben.

[3] = 125 ppm Wirkstoff (mg Wirkstoff/Liter Spritzbrühe)
[4] = 250 ppm Wirkstoff (mg Wirkstoff/Liter Spritzbrühe)
[5] = 500 ppm Wirkstoff (mg Wirkstoff/Liter Spritzbrühe)

OC(Cn1cncn1)(Cn1cncn1)c1ccc(F)cc1F [Fluconazol, reference compound]
Überlebenszeit (bez. auf Fluconazol = 100 % ) (Candida albicans; po): 100%

CC(C)NCC(O)COc1cccc2ccccc12 (centres unmarked) [Propranolol]
Hemmwirkung gegenüber Phospholipase aus Leberzellen [1]: wirksamste Substanz

Cc1cc(COc2ccc(Oc3ccc(Cl)cc3)cc2)n(O)c(=O)c1 [Rilopirox, reference compound]
killing at 5 µg/mL [2]: 96.2%
killing at 10 µg/mL [2]: 100%
killing at 20 µg/mL [2]: 100%
killing at 40 µg/mL [2]: 100%
killing at 80 µg/mL [2]: 100%
killing at 2.5 µg/mL [2]: 94.1%

CC(C)CC(C)NCC(O)COc1ccccc1C1CCCC1 (centres unmarked) [Verbindung 1.10]
Überlebenszeit (bez. auf Fluconazol = 100 % ) (Candida albicans): 149%

CC(C)(C)c1ccc(OCC(O)CNc2ccccc2)cc1 (centres unmarked) [Verbindung 1.16]
Verlängerung der Überlebenszeit (Candida albicans): 65%
Überlebenszeit (bez. auf Fluconazol = 100 % ) (Candida albicans): 165%

COc1ccc(CC(C)(C)NCC(O)COc2ccccc2C2CCCC2)cc1 (centres unmarked) [Verbindung 1.18]
killing at 5 µg/mL [2]: 95.7%
killing at 10 µg/mL [2]: 100%
killing at 20 µg/mL [2]: 100%
killing at 40 µg/mL [2]: 100%
killing at 80 µg/mL [2]: 100%
killing at 2.5 µg/mL [2]: 79.3%

CC(C)(C)c1ccc(OCC(O)CNCc2cccs2)cc1 (centres unmarked) [Verbindung 1.32]
mit Plasmopara viticola befallene Blattfläche in % (Plasmopara viticola; [3]): 0%
mit Plasmopara viticola befallene Blattfläche in % (Plasmopara viticola; [4]): 0%
mit Plasmopara viticola befallene Blattfläche in % (Plasmopara viticola; [5]): 0%

CCCCNCC(O)COc1ccc(C(C)(C)C)cc1 (centres unmarked) [Verbindung 1.37]
mit Plasmopara viticola befallene Blattfläche in % (Plasmopara viticola; [3]): 0%
mit Plasmopara viticola befallene Blattfläche in % (Plasmopara viticola; [4]): 0%
mit Plasmopara viticola befallene Blattfläche in % (Plasmopara viticola; [5]): 0%

From EP0459298A2, “Use of substituted beta-hydroxyethylamines as potent inhibitors of a fungal exoenzyme” (HOECHST AKTIENGESELLSCHAFT, priority 1990, dated 1991)
